Data: US20260028338A1, “HETEROBIFUNCTIONAL COMPOUNDS AND METHODS OF TREATING DISEASE” (Halda Therapeutics OpCo, Inc., priority 2023, published 2026)

What was measured:
[1] = test system: T-Rex 293 cell line SC cells having increased expression of BCL6 protein; test: Cellular growth inhibition assay, T-Rex 293 SC cells with doxycycline (CellTiter-Glo); type: cell-based; conditions: T-Rex 293 SC cells with 10 ng/mL doxycycline (increased BCL6 expression), 72 hours, CellTiter-Glo 2.0
Procedure: (§1) Exemplary compounds were tested for ability to inhibit the proliferation of the following types of cells: (i) a T-Rex 293 cell line having increased expression of BCL6 protein due to exposure of doxycycline and (ii) a T-Rex 293 cell line lacking increased expression of BCL6 protein.
(§2) The following types of cells were prepared for this experiment: (i) a T-Rex 293 cell line having increased expression of BCL6 protein due to exposure to doxycycline and (ii) a T-Rex 293 cell line lacking increased expression of BCL6 protein. Ability of the test compounds to inhibit proliferation of the foregoing cell types was evaluated according to the procedures set forth below.
(§3) The doxycycline-inducible BCL6 protein expressing cell line was established using the following protocol: T-Rex 293 cells were purchased from Invitrogen (Cat #R71007) and transfected using Lipofectamine 2000 with the wild-type BCL6 protein sequence cloned into the pcDNA4/TO vector. Transfected cells were selected using 400 μg/mL Zeocin (Invitrogen Cat #R25001). Following selection, single clones were raised and maintained in Dulbecco's Modified Eagle Medium (DMEM) supplemented with 10% w/w Tetracycline-free fetal bovine serum (FBS) and 250 μg/mL Zeocin. Clones were analyzed for expression of BCL6 protein in the presence and absence of 10 ng/mL doxycycline (Sigma Cat #D9891), and a single doxycycline-inducible clone (hereinafter “SC”) was selected for use in downstream assays.
(§4) The SC cells were seeded on poly-D-lysine coated, black clear-bottom 384-well plates at 2500/well, in 25 μL Dulbecco's Modified Eagle Medium (DMEM) supplemented with 10% w/w Tetracycline-free fetal bovine serum (FBS) and 1% w/w pen-strep, with or without 10 ng/mL doxycycline. Pen-Strep is a commercially available mixture of penicillin G and streptomycin, which is used in mammalian cell culture media to prevent bacterial contamination. Dulbecco's Modified Eagle Medium (DMEM) supplemented with 10% w/w Tetracycline-free fetal bovine serum (FBS) and 1% w/w pen-strep, with or without 10 ng/mL doxycycline is herein referred to as Treatment Medium. Following seeding of cells in the plates, the plates were spun at 300×g for 30 seconds, then equilibrated to room temperature for 30 minutes, and then deposited in a humidified tissue culture incubator maintained at 37° C. with 5% CO2.
(§5) At 24 hours after seeding of the cells, dilutions of test compound were prepared in DMSO and dissolved in Treatment Medium, to achieve a final DMSO concentration of 0.5% w/w, thereby providing the Test Compound Solution. A 25 μL aliquot of the Test Compound Solution was added to cells in the well plates. An equal volume of a solution containing DMSO and Treatment Medium was used as a negative control. Following treatment of cells with Test Compound Solution or said equal volume of a solution containing DMSO and Treatment Medium, the plates were spun at 300×g for 30 seconds, and then left in an incubator for 72 hours.
(§6) At the end of the treatment duration, cell viability was quantified with CellTiter-Glo 2.0 reagent (Promega Cat #G9243). For this purpose, plates were equilibrated to room temperature for 30 minutes, and then 25 μL of CellTiter-Glo 2.0 reagent was added to cells in the plate wells. Plates were then agitated on a shaker for two minutes at 500 rpm and subsequently incubated at room temperature for 10 minutes. Following incubation, the plates were spun at 3000×g for 30 seconds, then sealed with an optical adhesive cover, and luminescence readings were measured with an EnVision Plate Reader (Perkin Elmer).
(§7) Data was normalized using zero luminescence for baseline. A four-parameter non-linear regression curve fit was applied to dose-response data in GraphPad Prism data analysis software to determine the half-maximal growth inhibitory concentration (GI50) for each test compound.

[2] = biological target: T1, His-tagged BRD4 BD2 (333-460) (Homo sapiens, UniProt O60885); test: AlphaLISA competition assay, BRD4 BD2; type: binding; conditions: BRD4-BD2, AlphaLISA competition with biotinylated histone H4K5/8/12/16(Ac) peptide, 20 nM
T1 construct: The same assay was developed for His-tagged BRD4 BD2 (333-460) and biotinylated histone H4K5/8/12/16(Ac) peptide
Procedure: (§8) Exemplary compounds were tested for ability to bind to bromodomain-containing protein 4 (BRD4).
(§9) Compounds were tested using a developed AlphaLISA competition assay. Briefly, His-tagged BRD4 BD1 (46-168) and biotinylated histone H4K5/8/12/16(Ac) peptide (ANASPEC, AS-64989-1) were incubated in 20 mM HEPES pH 7.5, 100 mM NaCl, 0.5 mM TCEP, 0.1% BSA, 0.02% CHAPS at a final concentration of 10 nM. Test compounds were serially diluted ten times in the same buffer and were added to the BRD4-peptide mixture for 1 h incubation at room temperature. Following incubation, Streptavidin AlphaLISA acceptor beads (PerkinElmer, AL125M) were added to BRD4-peptide-compound samples to a final concentration of 0.01 mg/mL for a 0.5 h incubation at room temperature in the dark. Following incubation, the same amount of Nickel Chelate Alpha donor beads (PerkinElmer, AS101M) were added to the samples for a final 1 h incubation. The AlphaLISA signals were measured using an EnVision plate reader (PerkinElmer). The data were uploaded to Screening Ultra (Dotmatics) to determine the half-maximal inhibitory concentration (IC50) for each test compound.
The same assay was developed for His-tagged BRD4 BD2 (333-460) and biotinylated histone H4K5/8/12/16(Ac) peptide at a final concentration of 20 nM.

[3] = biological target: T2, His-tagged BRD4 BD1 (46-168) (Homo sapiens, UniProt O60885); test: AlphaLISA competition assay, BRD4 BD1; type: binding; conditions: BRD4-BD1, AlphaLISA competition with biotinylated histone H4K5/8/12/16(Ac) peptide, 10 nM
T2 construct: His-tagged BRD4 BD1 (46-168) and biotinylated histone H4K5/8/12/16(Ac) peptide
Procedure: as §8, §9

[4] = test system: T-Rex 293 cell line SC cells lacking increased expression of BCL6 protein; test: Cellular growth inhibition assay, T-Rex 293 SC cells without doxycycline (CellTiter-Glo); type: cell-based; conditions: T-Rex 293 SC cells not exposed to doxycycline (no increased BCL6 expression), 72 hours, CellTiter-Glo 2.0
Procedure: as §1, §2, §3, §4, §5, §6, §7

Farage cell line = test: Cellular growth inhibition assay, Farage cells (CellTiter-Glo); type: cell-based; conditions: Farage cell line (DLBCL), 72 hours, CellTiter-Glo 2.0
Procedure: Exemplary compounds were tested for ability to inhibit the proliferation of Su-DHL-4 and Farage cells. Su-DHL-4 and Farage cells are commercially available diffuse large B cell lymphoma cell lines (DLBCL).
Su-DHL-4 and Farage cells were purchased from American Type Cell Culture (ATCC Cat #CRL-2957/CRL-2630) and then seeded on poly-D-lysine coated, black clear-bottom 384-well plates at 3000/well in 25 μL Roswell Park Memorial Institute media (RPMI-1640) supplemented with 10% w/w Fetal bovine serum (FBS) and 1% w/w Pen-Strep. Pen-Strep is a commercially available mixture of penicillin G and streptomycin, which is used in mammalian cell culture media to prevent bacterial contamination. Roswell Park Memorial Institute media (RPMI-1640) supplemented with 10% w/w fetal bovine serum (FBS), and 1% w/w Pen-Strep is herein referred to as Treatment Medium. Following seeding of cells in the plates, the plates were spun at 300×g for 30 seconds, then equilibrated to room temperature for 30 minutes, and then deposited in a humidified tissue culture incubator maintained at 37° C. with 5% CO2.
as §5, §6, §7

SMILES	IC50 [2]	IC50 [3]	GI50 [1]	GI50 [4]	GI50 (Farage cell line)
CCS(=O)(=O)Nc1ccc(Oc2cccc(OCCCN3CCN(CC4CCN(c5ncc(Cl)c(Nc6ccc7c(c6)cc(OCC(=O)NC)c(=O)n7C)n5)CC4)CC3)c2)c(-c2cn(C)c(=O)c3[nH]ccc23)c1 [Compound I-6]	5 to 50 nM	5 to 50 nM	< 500 nM	< 500 nM	–
CCS(=O)(=O)Nc1ccc(Oc2ccc(OCCN3CCN(CC4CCN(c5ncc(Cl)c(Nc6ccc7c(c6)cc(OCC(=O)NC)c(=O)n7C)n5)CC4)CC3)cc2)c(-c2cn(C)c(=O)c3[nH]ccc23)c1 [Compound I-7]	5 to 50 nM	5 to 50 nM	< 500 nM	< 500 nM	–
CCS(=O)(=O)Nc1ccc(Oc2ccc(OCCCN3CCN(CC4CCN(c5ncc(Cl)c(Nc6ccc7c(c6)cc(OCC(=O)NC)c(=O)n7C)n5)CC4)CC3)cc2)c(-c2cn(C)c(=O)c3[nH]ccc23)c1 [Compound I-8]	5 to 50 nM	5 to 50 nM	< 500 nM	< 500 nM	–
CNC(=O)COc1cc2cc(Nc3nc(N4CCC5(CC4)CC(Oc4ccc(C6=N[C@@H](C)c7nnc(C)n7-c7sc(C)c(C)c76)cc4)C5)ncc3Cl)ccc2n(C)c1=O [Compound I-28, 2-[[6-[[5-chloro-2-[2-[4-[(9S)-4,5,9,13-tetramethyl-3-thia-1,8,11,12-tetrazatricyclo[8.3.0.02,6]trideca-2 (6),4,7,10,12-pentaen-7-yl]phenoxy]-7-azaspiro[3.5]nonan-7-yl]pyrimidin-4-yl]amino]-1-methyl-2-oxo-3-quinolyl]oxy]-N-methyl-acetamide]	–	–	< 500 nM	< 500 nM	< 500 nM
CNC(=O)COc1cc2cc(Nc3nc(N4CCC(CN5CCC6(CC5)CC(CC5CC(Oc7ccc(C(C)(C)O)cc7-c7cn(C)c(=O)c8[nH]ccc78)C5)C6)CC4)ncc3Cl)ccc2n(C)c1=O (stereo not shown) [Compound I-53]	–	–	< 500 nM	< 500 nM	< 500 nM
CNC(=O)COc1cc2cc(Nc3nc(N4CCC(CN5CCC6(CC5)CC(CC5CC(Oc7ccc(C(C)(C)O)cc7-c7cn(C)c(=O)c8[nH]ccc78)C5)C6)CC4)ncc3Cl)ccc2n(C)c1=O (stereo not shown) [Compound I-54]	–	–	< 500 nM	–	< 500 nM

Further lines, with some results ahead:

IC50 [2]	IC50 [3]	SMILES	GI50 [1]	GI50 [4]	GI50 (Farage cell line)
5 to 50 nM	5 to 50 nM	CCS(=O)(=O)Nc1ccc(Oc2cccc(OCCCCN3CCN(CC4CCN(c5ncc(Cl)c(Nc6ccc7c(c6)cc(OCC(=O)NC)c(=O)n7C)n5)CC4)CC3)c2)c(-c2cn(C)c(=O)c3[nH]ccc23)c1 [Compound I-9]	< 500 nM	< 500 nM	–
< 5 nM	5 to 50 nM	CCS(=O)(=O)Nc1ccc(Oc2ccc(OCCCCN3CCN(CC4CCN(c5ncc(Cl)c(Nc6ccc7c(c6)cc(OCC(=O)NC)c(=O)n7C)n5)CC4)CC3)cc2)c(-c2cn(C)c(=O)c3[nH]ccc23)c1 [Compound I-10]	< 500 nM	< 500 nM	–
5 to 50 nM	5 to 50 nM	CCS(=O)(=O)Nc1ccc(Oc2cccc(OCCN3CCN(CCCC4CCN(c5ncc(Cl)c(Nc6ccc7c(c6)cc(OCC(=O)NC)c(=O)n7C)n5)CC4)CC3)c2)c(-c2cn(C)c(=O)c3[nH]ccc23)c1 [Compound I-11]	< 500 nM	< 500 nM	–
5 to 50 nM	5 to 50 nM	CCS(=O)(=O)Nc1ccc(Oc2ccc(OCCN3CCN(CCCC4CCN(c5ncc(Cl)c(Nc6ccc7c(c6)cc(OCC(=O)NC)c(=O)n7C)n5)CC4)CC3)cc2)c(-c2cn(C)c(=O)c3[nH]ccc23)c1 [Compound I-12]	< 500 nM	< 500 nM	–
5 to 50 nM	5 to 50 nM	CCS(=O)(=O)Nc1ccc(Oc2cccc(OCCN3CCN(CCC4CCN(c5ncc(Cl)c(Nc6ccc7c(c6)cc(OCC(=O)NC)c(=O)n7C)n5)CC4)CC3)c2)c(-c2cn(C)c(=O)c3[nH]ccc23)c1 [Compound I-13]	< 500 nM	< 500 nM	–
< 5 nM	5 to 50 nM	CCS(=O)(=O)Nc1ccc(Oc2ccc(OCCN3CCN(CCC4CCN(c5ncc(Cl)c(Nc6ccc7c(c6)cc(OCC(=O)NC)c(=O)n7C)n5)CC4)CC3)cc2)c(-c2cn(C)c(=O)c3[nH]ccc23)c1 [Compound I-14]	< 500 nM	500 to 1500 nM	–
< 5 nM	5 to 50 nM	CCS(=O)(=O)Nc1ccc(Oc2ccc(CCN3CCN(CC4CCN(c5ncc(Cl)c(Nc6ccc7c(c6)cc(OCC(=O)NC)c(=O)n7C)n5)CC4)CC3)cc2)c(-c2cn(C)c(=O)c3[nH]ccc23)c1 [Compound I-16, 2-[[6-[[5-chloro-2-[4-[[4-[2-[4-[4-(ethylsulfonylamino)-2-(6-methyl-7-oxo-1H-pyrrolo[2,3-c]pyridin-4-yl)phenoxy]phenyl]ethyl]piperazin-1-yl]methyl]-1-piperidyl]pyrimidin-4-yl]amino]-1-methyl-2-oxo-3-quinolyl]oxy]-N-methyl-acetamide]	< 500 nM	< 500 nM	–
5 to 50 nM	5 to 50 nM	CCS(=O)(=O)Nc1ccc(Oc2cccc(CCN3CCN(CC4CCN(c5ncc(Cl)c(Nc6ccc7c(c6)cc(OCC(=O)NC)c(=O)n7C)n5)CC4)CC3)c2)c(-c2cn(C)c(=O)c3[nH]ccc23)c1 [Compound I-17]	> 3000 nM	< 500 nM	–
